Measured values reported in patent US12637428B2, “Isoquinoline derivatives as SIK2 inhibitors” (Cancer Research Technology Limited, priority 2019, dated 2026).

How the values were obtained:
Assay type in all cases: biochemical
SIK2 = target: T1, SIK2 (Homo sapiens, UniProt Q9H0K1); assay: SIK2 kinase assay, IMAP fluorescence polarization; conditions: 50 or 100 μM ATP, average
T1 construct: purchased Life Technologies
Procedure, shortened: (§1)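 Phosphorylation of 100 nM FAM-peptide by 0.6-13 nM kinase (50 or 100 μM ATP, pH 7.2 Tris/MgCl2 buffer, 60 min, RT) was quantified by IMAP fluorescence polarization. Stop reagent: 0.25% IMAP binding reagent, buffer A:B 85:15, except 30:70 for Src.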

Src = target: T2, Src (Homo sapiens, UniProt P12931); assay: Src kinase assay, IMAP fluorescence polarization; conditions: 50 or 100 μM ATP, average
T2 construct: purchased Life Technologies
Procedure, shortened: as §1

SIK1 = target: T3, SIK1 (Homo sapiens, UniProt P57059); assay: SIK1 kinase assay, IMAP fluorescence polarization; conditions: 50 or 100 μM ATP, average
T3 construct: purchased Life Technologies
T3 sequence (P57059 whole entry): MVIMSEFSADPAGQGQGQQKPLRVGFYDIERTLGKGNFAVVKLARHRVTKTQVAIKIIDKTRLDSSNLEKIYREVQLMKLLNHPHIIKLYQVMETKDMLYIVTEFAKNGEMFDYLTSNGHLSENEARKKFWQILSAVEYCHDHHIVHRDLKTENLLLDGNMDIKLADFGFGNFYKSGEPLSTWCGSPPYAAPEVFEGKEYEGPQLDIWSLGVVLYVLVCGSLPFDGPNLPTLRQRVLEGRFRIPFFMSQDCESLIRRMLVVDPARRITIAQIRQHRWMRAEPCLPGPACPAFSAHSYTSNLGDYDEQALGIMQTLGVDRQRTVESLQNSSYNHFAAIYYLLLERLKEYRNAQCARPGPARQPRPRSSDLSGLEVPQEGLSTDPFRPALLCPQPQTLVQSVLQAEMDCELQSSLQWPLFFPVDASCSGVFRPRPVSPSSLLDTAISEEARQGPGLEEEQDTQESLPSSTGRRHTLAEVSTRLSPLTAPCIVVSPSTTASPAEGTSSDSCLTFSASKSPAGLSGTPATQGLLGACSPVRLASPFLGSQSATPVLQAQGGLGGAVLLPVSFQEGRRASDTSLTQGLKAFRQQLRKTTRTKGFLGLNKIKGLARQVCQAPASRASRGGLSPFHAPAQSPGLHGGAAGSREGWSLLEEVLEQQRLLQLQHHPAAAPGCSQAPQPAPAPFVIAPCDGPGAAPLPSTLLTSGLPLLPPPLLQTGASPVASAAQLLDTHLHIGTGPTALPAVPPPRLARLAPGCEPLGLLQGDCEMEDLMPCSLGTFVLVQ
Procedure, shortened: as §1

EPHA2 = target: T4, EPHA2 (Homo sapiens, UniProt P29317); assay: EPHA2 kinase assay, IMAP fluorescence polarization; conditions: 50 or 100 μM ATP, Tris pH 8.5, average
T4 construct: purchased Life Technologies
T4 sequence (P29317 24-976): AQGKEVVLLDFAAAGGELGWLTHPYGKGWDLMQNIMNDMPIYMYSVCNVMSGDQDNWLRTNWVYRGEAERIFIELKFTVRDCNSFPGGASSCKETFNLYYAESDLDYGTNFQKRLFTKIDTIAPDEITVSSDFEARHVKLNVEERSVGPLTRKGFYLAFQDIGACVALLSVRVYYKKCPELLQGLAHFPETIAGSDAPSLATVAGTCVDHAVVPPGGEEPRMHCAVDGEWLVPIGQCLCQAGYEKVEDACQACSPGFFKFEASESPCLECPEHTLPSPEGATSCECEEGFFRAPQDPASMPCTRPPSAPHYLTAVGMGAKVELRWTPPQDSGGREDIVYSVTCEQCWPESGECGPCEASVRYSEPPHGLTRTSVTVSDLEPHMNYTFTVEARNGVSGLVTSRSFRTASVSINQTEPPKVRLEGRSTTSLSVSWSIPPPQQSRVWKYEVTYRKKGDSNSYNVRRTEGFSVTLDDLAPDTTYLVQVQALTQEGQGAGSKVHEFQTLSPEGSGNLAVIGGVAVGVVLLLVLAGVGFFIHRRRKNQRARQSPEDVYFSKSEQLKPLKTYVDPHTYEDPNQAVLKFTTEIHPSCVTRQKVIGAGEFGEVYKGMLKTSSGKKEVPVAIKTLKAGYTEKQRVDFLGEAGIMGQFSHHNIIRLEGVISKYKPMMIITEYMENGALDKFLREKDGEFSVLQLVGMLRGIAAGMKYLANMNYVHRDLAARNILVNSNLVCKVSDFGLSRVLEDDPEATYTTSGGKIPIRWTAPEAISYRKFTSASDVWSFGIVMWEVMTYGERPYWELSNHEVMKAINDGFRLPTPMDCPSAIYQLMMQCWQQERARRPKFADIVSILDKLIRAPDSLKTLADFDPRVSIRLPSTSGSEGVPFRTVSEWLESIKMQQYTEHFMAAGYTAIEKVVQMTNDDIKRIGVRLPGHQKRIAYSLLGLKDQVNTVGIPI

Abl = target: T5, Abl (Homo sapiens, UniProt P00519); assay: Abl kinase assay, IMAP fluorescence polarization; conditions: 50 or 100 μM ATP, average
T5 construct: purchased Life Technologies
T5 sequence (P00519 whole entry): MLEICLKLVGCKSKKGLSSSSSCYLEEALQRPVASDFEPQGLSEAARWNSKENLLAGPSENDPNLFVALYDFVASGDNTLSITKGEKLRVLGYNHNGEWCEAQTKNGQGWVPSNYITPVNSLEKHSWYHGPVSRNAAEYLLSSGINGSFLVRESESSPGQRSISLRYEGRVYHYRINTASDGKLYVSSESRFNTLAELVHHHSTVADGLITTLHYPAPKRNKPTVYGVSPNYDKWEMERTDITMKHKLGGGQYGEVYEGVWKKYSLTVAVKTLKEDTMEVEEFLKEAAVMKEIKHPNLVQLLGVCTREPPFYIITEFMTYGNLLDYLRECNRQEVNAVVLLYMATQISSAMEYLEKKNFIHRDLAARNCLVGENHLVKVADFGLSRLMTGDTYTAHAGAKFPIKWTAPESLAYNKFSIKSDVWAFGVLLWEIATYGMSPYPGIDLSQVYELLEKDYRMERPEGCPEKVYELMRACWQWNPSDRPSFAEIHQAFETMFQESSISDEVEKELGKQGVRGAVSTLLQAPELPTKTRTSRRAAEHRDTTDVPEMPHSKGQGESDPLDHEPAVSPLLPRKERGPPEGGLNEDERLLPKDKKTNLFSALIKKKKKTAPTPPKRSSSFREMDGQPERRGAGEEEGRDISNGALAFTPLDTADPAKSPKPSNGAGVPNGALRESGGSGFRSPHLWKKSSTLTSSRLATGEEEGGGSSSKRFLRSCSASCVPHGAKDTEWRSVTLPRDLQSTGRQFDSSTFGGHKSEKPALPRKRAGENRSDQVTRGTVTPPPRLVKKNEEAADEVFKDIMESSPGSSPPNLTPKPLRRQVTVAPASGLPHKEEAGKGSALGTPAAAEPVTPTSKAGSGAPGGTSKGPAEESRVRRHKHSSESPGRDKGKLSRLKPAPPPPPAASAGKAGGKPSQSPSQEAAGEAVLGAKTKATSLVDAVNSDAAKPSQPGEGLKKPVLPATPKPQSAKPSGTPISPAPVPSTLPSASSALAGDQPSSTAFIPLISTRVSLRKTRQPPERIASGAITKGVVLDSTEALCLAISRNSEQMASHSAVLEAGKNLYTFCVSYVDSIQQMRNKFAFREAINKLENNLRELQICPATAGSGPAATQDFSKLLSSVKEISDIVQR
Procedure, shortened: as §1

SIK3 = target: T6, SIK3 (Homo sapiens, UniProt Q9Y2K2); assay: SIK3 kinase assay, IMAP fluorescence polarization; conditions: 50 or 100 μM ATP, average
T6 construct: purchased Life Technologies
T6 sequence (Q9Y2K2 whole entry): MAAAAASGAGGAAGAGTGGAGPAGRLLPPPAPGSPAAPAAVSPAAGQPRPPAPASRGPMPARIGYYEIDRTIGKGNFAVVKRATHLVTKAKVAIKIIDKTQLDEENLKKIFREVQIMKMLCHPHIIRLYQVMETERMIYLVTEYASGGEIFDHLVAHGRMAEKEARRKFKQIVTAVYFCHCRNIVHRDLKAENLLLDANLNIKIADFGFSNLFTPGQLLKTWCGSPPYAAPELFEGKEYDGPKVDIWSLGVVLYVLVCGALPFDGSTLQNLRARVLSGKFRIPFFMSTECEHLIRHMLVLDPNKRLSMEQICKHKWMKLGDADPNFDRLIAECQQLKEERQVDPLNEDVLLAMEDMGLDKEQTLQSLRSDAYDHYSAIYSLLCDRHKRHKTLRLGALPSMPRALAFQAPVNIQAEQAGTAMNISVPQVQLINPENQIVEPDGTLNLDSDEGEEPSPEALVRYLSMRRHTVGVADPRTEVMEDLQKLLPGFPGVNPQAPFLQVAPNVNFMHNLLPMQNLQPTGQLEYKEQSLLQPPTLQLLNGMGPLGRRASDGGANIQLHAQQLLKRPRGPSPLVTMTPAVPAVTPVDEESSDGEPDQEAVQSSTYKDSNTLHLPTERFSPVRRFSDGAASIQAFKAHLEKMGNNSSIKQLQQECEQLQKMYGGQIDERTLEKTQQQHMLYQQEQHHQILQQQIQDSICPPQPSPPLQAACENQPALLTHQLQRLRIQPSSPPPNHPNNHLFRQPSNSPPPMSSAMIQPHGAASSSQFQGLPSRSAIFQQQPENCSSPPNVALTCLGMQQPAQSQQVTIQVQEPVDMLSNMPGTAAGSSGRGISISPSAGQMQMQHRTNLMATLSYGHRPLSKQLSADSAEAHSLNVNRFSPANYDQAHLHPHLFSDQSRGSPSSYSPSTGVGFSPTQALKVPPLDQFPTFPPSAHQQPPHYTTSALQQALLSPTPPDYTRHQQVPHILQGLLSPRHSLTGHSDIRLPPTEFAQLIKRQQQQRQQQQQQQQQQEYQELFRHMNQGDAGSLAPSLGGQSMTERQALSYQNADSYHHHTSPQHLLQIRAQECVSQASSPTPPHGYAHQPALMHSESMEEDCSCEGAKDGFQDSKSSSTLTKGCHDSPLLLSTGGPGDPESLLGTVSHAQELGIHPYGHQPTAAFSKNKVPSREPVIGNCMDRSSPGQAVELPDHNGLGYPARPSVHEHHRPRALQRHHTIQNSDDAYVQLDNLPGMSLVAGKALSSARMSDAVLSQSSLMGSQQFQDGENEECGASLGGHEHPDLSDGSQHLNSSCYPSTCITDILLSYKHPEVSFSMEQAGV
Procedure, shortened: as §1

T1 sequence (Q9H0K1 whole entry): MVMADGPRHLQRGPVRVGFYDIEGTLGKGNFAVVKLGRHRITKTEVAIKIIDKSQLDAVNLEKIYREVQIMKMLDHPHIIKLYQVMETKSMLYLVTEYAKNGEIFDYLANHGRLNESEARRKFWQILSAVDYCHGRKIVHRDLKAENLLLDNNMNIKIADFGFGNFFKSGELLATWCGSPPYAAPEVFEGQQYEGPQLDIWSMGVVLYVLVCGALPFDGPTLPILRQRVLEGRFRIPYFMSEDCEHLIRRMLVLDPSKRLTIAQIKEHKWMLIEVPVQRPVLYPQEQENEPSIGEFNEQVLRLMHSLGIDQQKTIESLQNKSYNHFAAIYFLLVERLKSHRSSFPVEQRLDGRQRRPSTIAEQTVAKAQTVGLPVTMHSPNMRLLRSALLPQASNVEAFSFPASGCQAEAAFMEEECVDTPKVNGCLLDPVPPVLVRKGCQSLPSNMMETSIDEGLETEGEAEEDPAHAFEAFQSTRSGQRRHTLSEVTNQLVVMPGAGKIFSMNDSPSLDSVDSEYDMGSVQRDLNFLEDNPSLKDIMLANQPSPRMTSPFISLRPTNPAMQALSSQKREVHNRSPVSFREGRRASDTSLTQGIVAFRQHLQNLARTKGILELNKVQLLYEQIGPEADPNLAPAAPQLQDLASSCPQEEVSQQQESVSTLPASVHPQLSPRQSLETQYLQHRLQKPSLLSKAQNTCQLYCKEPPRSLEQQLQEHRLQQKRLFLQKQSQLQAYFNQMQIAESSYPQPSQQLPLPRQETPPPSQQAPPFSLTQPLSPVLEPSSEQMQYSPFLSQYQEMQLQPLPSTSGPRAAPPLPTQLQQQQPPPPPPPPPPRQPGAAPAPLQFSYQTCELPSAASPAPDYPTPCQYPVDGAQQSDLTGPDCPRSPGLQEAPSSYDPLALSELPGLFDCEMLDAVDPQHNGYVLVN

| SMILES | Ki (SIK2) [nM] | Ki (Src) [nM] | Ki (SIK1) [nM] | Ki (EPHA2) [nM] | Ki (Abl) [nM] | Ki (SIK3) [nM] |
| --- | --- | --- | --- | --- | --- | --- |
| Cc1cccc(F)c1-c1cc(C(=O)NC2CCN(C)C2)c2cc(N)ncc2c1 (stereo not drawn) [Example 99, 3-Amino-7-(2-fluoro-6-methyl-phenyl)-N-(1-methylpyrrolidin-3-yl)isoquinoline-5-carboxamide] | 2.91 | 32.9 | 5.62 | 29.2 | 3.04 | 38.8 |
| Cc1cccc(F)c1-c1cc(C(=O)NC2CN(C)C2)c2cc(N)ncc2c1 [Example 100, 3-amino-7-(2-fluoro-6-methyl-phenyl)-N-(1-methylazetidin-3-yl)isoquinoline-5-carboxamide] | 4.41 | 41.4 | 11.8 | 131 | 3.65 | 61.4 |
| Cc1cccc(F)c1-c1cc(OC2CCN(C)CC2)c2cc(N)ncc2c1 [Example 101, 7-(2-Fluoro-6-methyl-phenyl)-5-[(1-methyl-4-piperidyl)oxy]isoquinolin-3-amine] | 0.0539 | 134 | 0.66 | > 100 | 59.1 | 0.915 |
| Cc1cccc(F)c1-c1cc(OC2CN(C)C2)c2cc(N)ncc2c1 [Example 102, 7-(2-fluoro-6-methyl-phenyl)-5-(1-methylazetidin-3-yl)oxy-isoquinolin-3-amine] | 0.219 | 274 | 1.46 | > 1000 | 24.6 | 5.27 |
| Cc1cccc(F)c1-c1cc(NC2CCN(C)CC2)c2ccncc2c1 [Example 103, 7-(2-Fluoro-6-methyl-phenyl)-N-(1-methyl-4-piperidyl)isoquinolin-5-amine] | 0.296 | 143 | 2.21 | 189 | 97.2 | 5.01 |
| Cc1cccc(F)c1-c1cc(N2CCC(O)CC2)c2cc(N)ncc2c1 [Example 104, 1-[3-Amino-7-(2-fluoro-6-methyl-phenyl)-5-isoquinolyl]piperidin-4-ol] | 4.37 | > 1000 | 43.4 | > 1000 | 45.4 | 176 |
| Cc1cccc(F)c1-c1cc(N2CC[C@@H](O)C2)c2cc(N)ncc2c1 [Example 106, (3R)-1-[3-amino-7-(2-fluoro-6-methyl-phenyl)-5-isoquinolyl]pyrrolidin-3-ol] | 19.5 | > 10000 | 123 | > 10000 | 28.8 | 553 |
| Cc1cccc(F)c1-c1cc(N2CCC[C@H](O)C2)c2cc(N)ncc2c1 [Example 107, (3S)-1-[3-amino-7-(2-fluoro-6-methyl-phenyl)-5-isoquinolyl]piperidin-3-ol] | 4.46 | 617 | 24.6 | > 1000 | 56.4 | 201 |
| Cc1cccc(F)c1-c1cc(N2CCC[C@@H](O)C2)c2cc(N)ncc2c1 [Example 108, (3R)-1-[3-amino-7-(2-fluoro-6-methyl-phenyl)-5-isoquinolyl]piperidin-3-ol] | 2.39 | 1880 | 29.7 | 2290 | 101 | 130 |
| Cc1cccc(F)c1-c1cc(N[C@H]2CC[C@H](O)CC2)c2cc(N)ncc2c1 [Example 109, 4-[[3-amino-7-(2-fluoro-6-methyl-phenyl)-5-isoquinolyl]amino]cyclo hexanol] | 1.6 | 3330 | 3.76 | > 1000 | 74.8 | 14.9 |
| Cc1cccc(F)c1-c1cc(NC2CCOCC2)c2cc(N)ncc2c1 [Example 110, 7-(2-Fluoro-6-methyl-phenyl)-N5-tetrahydropyran-4-yl-isoquinoline-3,5-diamine] | 6.97 | > 10000 | 55.5 | > 1000 | 56 | 78.1 |
| CC(=O)N[C@H]1CCN(c2cc(-c3c(C)cccc3F)cc3cnc(N)cc23)C1 [Example 112, N-[(3S)-1-[3-Amino-7-(2-fluoro-6-methyl-phenyl)-5-isoquinolyl]pyrrolidin-3-yl]acetamide] | 14.7 | > 10000 | 91.6 | > 10000 | 124 | 431 |
| CC(=O)N[C@@H]1CCN(c2cc(-c3c(C)cccc3F)cc3cnc(N)cc23)C1 [Example 113, N-[(3R)-1-[3-amino-7-(2-fluoro-6-methyl-phenyl)-5-isoquinolyl]pyrrolidin-3-yl]acetamide] | 9.81 | 1080 | 74.9 | > 10000 | 88.9 | 234 |
| CC(=O)NC1CCN(c2cc(-c3c(C)cccc3F)cc3cnc(N)cc23)CC1 [Example 114, N-[1-[3-amino-7-(2-fluoro-6-methyl-phenyl)-5-isoquinolyl]-4-piperidyl]acetamide] | 0.617 | 1600 | 12 | > 1000 | 16.4 | 20.3 |
| CC(=O)Nc1cc2c(NC3CCN(C)CC3)cc(-c3c(C)cccc3F)cc2cn1 [Example 115, N-[7-(2-Fluoro-6-methyl-phenyl)-5-[(1-methyl-4-piperidyl)amino]-3-isoquinolyl]acetamide] | 0.0274 | 0.974 | 0.183 | 1.08 | 0.243 | 0.301 |
| Cc1cccc(F)c1-c1cc(C(=O)NC2CCN(C)CC2)c2cc(N)ncc2c1 [Example 116, 3-Amino-7-(2-fluoro-6-methyl-phenyl)-N-(1-methyl-4-piperidyl)isoquinoline-5-carboxamide] | 4.93 | 80.2 | 8.53 | 47.4 | 16.7 | 13.8 |
| Cc1cccc(F)c1-c1cc(C2CCN(C)CC2)c2cc(N)ncc2c1 [Example 117, 7-(2-Fluoro-6-methyl-phenyl)-5-(1-methyl-4-piperidyl)isoquinolin-3-amine] | 0.0546 | > 1000 | 0.678 | > 1000 | 12.3 | 0.473 |
| CCN1CCC(Nc2cc(-c3c(C)cccc3F)c(F)c3cnc(N)cc23)CC1 [Example 118, N5-(1-Ethyl-4-piperidyl)-8-fluoro-7-(2-fluoro-6-methyl-phenyl)isoquinoline-3,5-diamine] | 6.2 | > 10000 | 10.2 | > 10000 | > 10000 | 77 |
| Cc1cccc(F)c1-c1cc(NC2CCN(C)CC2)c2cc(N)ncc2c1F [Example 119, 8-fluoro-7-(2-fluoro-6-methyl-phenyl)-N5-(1-methyl-4-piperidyl)isoquinoline-3,5-diamine] | 3.11 | > 1000 | 4.3 | > 1000 | > 1000 | 25 |
| Cc1cccc(F)c1-c1cc(NC2CCNCC2)c2cc(N)ncc2c1F [Example 120, 8-Fluoro-7-(2-fluoro-6-methyl-phenyl)-N5-(4-piperidyl)isoquinoline-3,5-diamine] | 2.43 | > 1000 | 3.55 | > 1000 | > 1000 | 22.1 |
